{"source": "patent US10174067B2", "about": "“Type of cytidine derivative and application thereof” (priority 2014, dated 2019)", "key": {"[1]": {"in_short": "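Test compounds formulated in ethanol:Cremophor EL:saline (5:5:90), vehicle alone as control, in HCT-116 subcutaneous xenografts in female Balb/c nudes (6/group, start 60–150 mm^3). Weight measured three times weekly, tumour weight at end; unpaired t-test on Mean±SEM data.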"}, "[2]": {"system": "HCT-116 colon cancer xenografts", "assay": "Tumor growth inhibition of HCT-116 colon cancer xenografts in tumor-bearing nude mice (tumor volume, TGI %, RTV, T/C %)", "type": "in vivo, Balb/c Nude mice", "conditions": "G10-G16 groups, single IP 400 mg/kg", "in_short": "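Tumors in HCT-116-inoculated nude mice were sized three times weekly by diameter, with volume V=3/4π(D/2)^3. Significance set at P<0.05.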"}, "ICR mice": {"system": "ICR mice", "assay": "in vivo", "conditions": "female ICR mice; single-dose ip", "in_short": "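MTD, the dose without mortality, body-weight loss over 10% from Day 0 or marked adverse signs, was found by stepwise up/down single intraperitoneal dosing of female SPF ICR mice. Vehicle: ethanol:Cremophor EL:saline 5:5:90. Animals weighed daily and clinically checked twice daily for up to 14 days.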"}, "[3]": {"conditions": "Day 1, G10-G16 groups, single IP 400 mg/kg, Mean±SEM"}, "[4]": {"conditions": "Day 2, G10-G16 groups, single IP 400 mg/kg, Mean±SEM"}, "[5]": {"conditions": "Day 4, G10-G16 groups, single IP 400 mg/kg, Mean±SEM"}, "[6]": {"conditions": "Day 7, G10-G16 groups, single IP 400 mg/kg, Mean±SEM"}, "[7]": {"conditions": "Day 9, G10-G16 groups, single IP 400 mg/kg, Mean±SEM"}, "[8]": {"conditions": "Day 11, G10-G16 groups, single IP 400 mg/kg, Mean±SEM"}, "[9]": {"conditions": "Day 14, G10-G16 groups, single IP 400 mg/kg, Mean±SEM"}, "[10]": {"conditions": "Day 16, G10-G16 groups, single IP 400 mg/kg, Mean±SEM"}, "[11]": {"conditions": "Day 18, G10-G16 groups, single IP 400 mg/kg, Mean±SEM"}, "[12]": {"conditions": "Day 21, G10-G16 groups, single IP 400 mg/kg, Mean±SEM"}, "[13]": {"conditions": "Day 23, G10-G16 groups, single IP 400 mg/kg, Mean±SEM"}, "[14]": {"conditions": "Day 25, G10-G16 groups, single IP 400 mg/kg, Mean±SEM"}, "[15]": {"conditions": "Day 28, G10-G16 groups, single IP 400 mg/kg, Mean±SEM"}, "[16]": {"conditions": "Day 30, G10-G16 groups, single IP 400 mg/kg, Mean±SEM"}}, "note": "Marks after values point to notes of the source that are not given here."}
{"smiles": "CCCCOC(=O)Nc1nc(=O)n(C2OC(COC(=O)COc3nc(Cl)c(Cl)cc3Cl)C(O)C2(F)F)cc1-c1cn(Cc2ccccc2)nn1", "note": "(centres unmarked) [Compound G15]", "values": [{"measurement": "Weight change rate, Day 0", "setting": "[1]; Day 0, G10-G16 groups, single IP 400 mg/kg", "value": 0.00, "unit": "%"}, {"measurement": "Weight of mice, Day 0", "setting": "[1]; Day 0, G10-G16 groups, single IP 400 mg/kg, Mean±SEM", "value": "20.15 ± 0.29", "unit": "g"}, {"measurement": "Weight change rate, Day 1", "setting": "[1]; [3]", "value": "−1.20 ± 1.02", "unit": "%"}, {"measurement": "Weight of mice, Day 1", "setting": "[1]; [3]", "value": "19.92 ± 0.44", "unit": "g"}, {"measurement": "Weight change rate, Day 2", "setting": "[1]; [4]", "value": "−11.24 ± 1.52", "unit": "%"}, {"measurement": "Weight of mice, Day 2", "setting": "[1]; [4]", "value": "17.9 ± 0.52", "unit": "g"}, {"measurement": "Weight change rate, Day 4", "setting": "[1]; [5]", "value": "−18.30 ± 3.09", "unit": "%"}, {"measurement": "Weight of mice, Day 4", "setting": "[1]; [5]", "value": "16.48 ± 0.77", "unit": "g"}, {"measurement": "Weight change rate, Day 7", "setting": "[1]; [6]", "value": "−1.96 ± 0.54", "unit": "%"}, {"measurement": "Weight of mice, Day 7", "setting": "[1]; [6]", "value": "20.10 ± 0.60", "unit": "g"}, {"measurement": "Weight change rate, Day 9", "setting": "[1]; [7]", "value": "2.49 ± 2.01", "unit": "%"}, {"measurement": "Weight of mice, Day 9", "setting": "[1]; [7]", "value": "21.00 ± 0.10", "unit": "g"}, {"measurement": "Weight change rate, Day 11", "setting": "[1]; [8]", "value": "4.46 ± 3.04", "unit": "%"}, {"measurement": "Weight of mice, Day 11", "setting": "[1]; [8]", "value": "21.40 ± 0.10", "unit": "g"}, {"measurement": "Weight change rate, Day 14", "setting": "[1]; [9]", "value": "7.83 ± 1.17", "unit": "%"}, {"measurement": "Weight of mice, Day 14", "setting": "[1]; [9]", "value": "22.1 ± 0.30", "unit": "g"}, {"measurement": "Weight change rate, Day 16", "setting": "[1]; [10]", "value": "11.00 ± 1.00", "unit": "%"}, {"measurement": "Weight of mice, Day 16", "setting": "[1]; [10]", "value": "22.75 ± 0.35", "unit": "g"}, {"measurement": "Weight change rate, Day 18", "setting": "[1]; [11]", "value": "13.18 ± 0.32", "unit": "%"}, {"measurement": "Weight of mice, Day 18", "setting": "[1]; [11]", "value": "23.20 ± 0.50", "unit": "g"}, {"measurement": "Weight change rate, Day 21", "setting": "[1]; [12]", "value": "9.29 ± 0.71", "unit": "%"}, {"measurement": "Weight of mice, Day 21", "setting": "[1]; [12]", "value": "22.40 ± 0.40", "unit": "g"}, {"measurement": "Day 22 Mortality", "setting": "[1]; Day 22, single IP dose (mg/kg)", "value": 67, "unit": "%"}, {"measurement": "Weight change rate, Day 23", "setting": "[1]; [13]", "value": "8.06 ± 0.44", "unit": "%"}, {"measurement": "Weight of mice, Day 23", "setting": "[1]; [13]", "value": "22.15 ± 0.45", "unit": "g"}, {"measurement": "Weight change rate, Day 25", "setting": "[1]; [14]", "value": "9.26 ± 0.26", "unit": "%"}, {"measurement": "Weight of mice, Day 25", "setting": "[1]; [14]", "value": "22.4 ± 0.60", "unit": "g"}, {"measurement": "Weight change rate, Day 28", "setting": "[1]; [15]", "value": "7.08 ± 0.42", "unit": "%"}, {"measurement": "Weight of mice, Day 28", "setting": "[1]; [15]", "value": "21.95 ± 0.45", "unit": "g"}, {"measurement": "Weight change rate, Day 30", "setting": "[1]; [16]", "value": "9.20 ± 2.70", "unit": "%"}, {"measurement": "Weight of mice, Day 30", "setting": "[1]; [16]", "value": "22.40 ± 1.10", "unit": "g"}, {"measurement": "clinical symptoms", "setting": "[1]; after single IP dose, compared with model control group", "value": "no significant differences in clinical symptoms"}, {"measurement": "Day 0 (RTV)", "setting": "[2]; Day 0", "value": 1.00}, {"measurement": "Tumor volume, Day 0", "setting": "[2]; Day 0, Mean±SEM", "value": "80.27 ± 13.25", "unit": "mm^3"}, {"measurement": "Day 1 (TGI %)", "setting": "[2]; Day 1", "value": 35.29, "unit": "%"}, {"measurement": "Day 1 (RTV)", "setting": "[2]; Day 1, Mean±SEM", "value": "1.44 ± 0.12"}, {"measurement": "Tumor volume, Day 1", "setting": "[2]; Day 1, Mean±SEM", "value": "116.82 ± 21* mm^3"}, {"measurement": "Day 2 (TGI %)", "setting": "[2]; Day 2", "value": 44.25, "unit": "%"}, {"measurement": "Day 2 (RTV)", "setting": "[2]; Day 2, Mean±SEM", "value": "1.50 ± 0.15"}, {"measurement": "Tumor volume, Day 2", "setting": "[2]; Day 2, Mean±SEM", "value": "123.70 ± 25.72* mm^3"}, {"measurement": "Day 4 (TGI %)", "setting": "[2]; Day 4", "value": 67.87, "unit": "%"}, {"measurement": "Day 4 (RTV)", "setting": "[2]; Day 4, Mean±SEM", "value": "1.11 ± 0.17"}, {"measurement": "Tumor volume, Day 4", "setting": "[2]; Day 4, Mean±SEM", "value": "95.41 ± 22.57** mm^3"}, {"measurement": "Day 7 (TGI %)", "setting": "[2]; Day 7", "value": 86.92, "unit": "%"}, {"measurement": "Day 7 (RTV)", "setting": "[2]; Day 7, Mean±SEM", "value": "0.88 ± 0.12"}, {"measurement": "Tumor volume, Day 7", "setting": "[2]; Day 7, Mean±SEM", "value": "56.58 ± 8.87** mm^3"}, {"measurement": "Day 9 (TGI %)", "setting": "[2]; Day 9", "value": 91.92, "unit": "%"}, {"measurement": "Day 9 (RTV)", "setting": "[2]; Day 9, Mean±SEM", "value": "0.77 ± 0.23"}, {"measurement": "Tumor volume, Day 9", "setting": "[2]; Day 9, Mean±SEM", "value": "47.71 ± 0.00** mm^3"}, {"measurement": "Day 11 (TGI %)", "setting": "[2]; Day 11", "value": 92.19, "unit": "%"}, {"measurement": "Day 11 (RTV)", "setting": "[2]; Day 11, Mean±SEM", "value": "1.19 ± 0.19"}, {"measurement": "Tumor volume, Day 11", "setting": "[2]; Day 11, Mean±SEM", "value": "76.28 ± 10.83** mm^3"}, {"measurement": "Day 14 (TGI %)", "setting": "[2]; Day 14", "value": 86.10, "unit": "%"}, {"measurement": "Day 14 (RTV)", "setting": "[2]; Day 14, Mean±SEM", "value": "3.15 ± 0.61"}, {"measurement": "Tumor volume, Day 14", "setting": "[2]; Day 14, Mean±SEM", "value": "200.24 ± 20.65** mm^3"}, {"measurement": "Day 16 (TGI %)", "setting": "[2]; Day 16", "value": 77.07, "unit": "%"}, {"measurement": "Day 16 (RTV)", "setting": "[2]; Day 16, Mean±SEM", "value": "6.58 ± 1.42"}, {"measurement": "Tumor volume, Day 16", "setting": "[2]; Day 16, Mean±SEM", "value": "415.31 ± 33.61** mm^3"}, {"measurement": "Day 18 (TGI %)", "setting": "[2]; Day 18", "value": 71.73, "unit": "%"}, {"measurement": "Day 18 (RTV)", "setting": "[2]; Day 18, Mean±SEM", "value": "8.97 ± 2.01"}, {"measurement": "Tumor volume, Day 18", "setting": "[2]; Day 18, Mean±SEM", "value": "564.86 ± 41.27** mm^3"}, {"measurement": "Day 21 (TGI %)", "setting": "[2]; Day 21", "value": 60.58, "unit": "%"}, {"measurement": "Day 21 (RTV)", "setting": "[2]; Day 21, Mean±SEM", "value": "15.35 ± 3.61"}, {"measurement": "Tumor volume, Day 21", "setting": "[2]; Day 21, Mean±SEM", "value": "963.72 ± 58.94", "unit": "mm^3"}, {"measurement": "Day 23 (TGI %)", "setting": "[2]; Day 23", "value": 59.19, "unit": "%"}, {"measurement": "Day 23 (RTV)", "setting": "[2]; Day 23, Mean±SEM", "value": "15.35 ± 3.61"}, {"measurement": "Tumor volume, Day 23", "setting": "[2]; Day 23, Mean±SEM", "value": "963.72 ± 58.94", "unit": "mm^3"}, {"measurement": "Day 25 (TGI %)", "setting": "[2]; Day 25", "value": 57.93, "unit": "%"}, {"measurement": "Day 25 (RTV)", "setting": "[2]; Day 25, Mean±SEM", "value": "17.32 ± 4.11"}, {"measurement": "Tumor volume, Day 25", "setting": "[2]; Day 25, Mean±SEM", "value": "1086.50 ± 63.85", "unit": "mm^3"}, {"measurement": "Day 28 (TGI %)", "setting": "[2]; Day 28", "value": 49.34, "unit": "%"}, {"measurement": "Day 28 (RTV)", "setting": "[2]; Day 28, Mean±SEM", "value": "21.75 ± 5.25"}, {"measurement": "Tumor volume, Day 28", "setting": "[2]; Day 28, Mean±SEM", "value": "1362.50 ± 74.25", "unit": "mm^3"}, {"measurement": "Day 30 (TGI %)", "setting": "[2]; Day 30", "value": 37.03, "unit": "%"}, {"measurement": "Day 30 (RTV)", "setting": "[2]; Day 30, Mean±SEM", "value": "28.66 ± 8.38"}, {"measurement": "Tumor volume, Day 30", "setting": "[2]; Day 30, Mean±SEM", "value": "1767.15 ± 0.00", "unit": "mm^3"}, {"measurement": "dose that could be tolerated (maximum tolerated dose, MTD)", "setting": "ICR mice", "value": 400, "unit": "mg/kg"}]}
